Laboratory results published in patent publication US20150353495A1 (PORTOLA PHARMACEUTICALS, INC., priority 2010, published 2015).

Columns and labels:
Format in all cases: biochemical
JAK1 = target: T1, JAK1 (Homo sapiens, UniProt P23458); assay: Z'-LYTE kinase assay JAK1
T1 construct: 5 μl of catalytic domain recombinant Kinase enzyme+Tyr peptide substrate (Invitrogen, CA); purchased Invitrogen
Summary of the method: (§1)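 In duplicate wells, each test molecule (1% final DMSO) is incubated with recombinant kinase catalytic domain, Tyr6 peptide substrate and ATP for one hour at room temperature; a site-specific protease is then added for another hour before fluorescence reading.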

JAK3 = target: T2, JAK3 (Homo sapiens, UniProt P52333); assay: Z'-LYTE kinase assay JAK3
T2 construct: 5 μl of catalytic domain recombinant Kinase enzyme+Tyr peptide substrate (Invitrogen, CA); purchased Invitrogen
T2 sequence (P52333 822-1111 limits assumed): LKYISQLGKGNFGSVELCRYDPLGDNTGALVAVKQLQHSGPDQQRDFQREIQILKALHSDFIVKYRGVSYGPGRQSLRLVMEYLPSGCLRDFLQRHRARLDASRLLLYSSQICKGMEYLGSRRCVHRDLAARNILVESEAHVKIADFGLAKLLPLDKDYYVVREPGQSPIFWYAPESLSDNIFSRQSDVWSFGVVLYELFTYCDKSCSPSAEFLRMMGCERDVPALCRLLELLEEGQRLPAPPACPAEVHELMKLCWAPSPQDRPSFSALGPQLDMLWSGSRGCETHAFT
Summary of the method: as §1

JAK2 = target: T3, JAK2 (Homo sapiens, UniProt O60674); assay: Z'-LYTE kinase assay JAK2
T3 construct: 5 μl of catalytic domain recombinant Kinase enzyme+Tyr peptide substrate (Invitrogen, CA); purchased Invitrogen
T3 sequence (O60674 849-1124 limits assumed): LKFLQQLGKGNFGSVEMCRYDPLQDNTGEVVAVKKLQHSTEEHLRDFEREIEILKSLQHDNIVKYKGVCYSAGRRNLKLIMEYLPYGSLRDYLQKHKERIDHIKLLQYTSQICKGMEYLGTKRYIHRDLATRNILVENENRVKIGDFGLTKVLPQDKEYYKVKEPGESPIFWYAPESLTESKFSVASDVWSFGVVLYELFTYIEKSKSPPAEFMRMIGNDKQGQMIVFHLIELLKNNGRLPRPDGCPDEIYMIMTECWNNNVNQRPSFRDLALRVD
Summary of the method: as §1

T1 sequence (P23458 875-1153 limits assumed): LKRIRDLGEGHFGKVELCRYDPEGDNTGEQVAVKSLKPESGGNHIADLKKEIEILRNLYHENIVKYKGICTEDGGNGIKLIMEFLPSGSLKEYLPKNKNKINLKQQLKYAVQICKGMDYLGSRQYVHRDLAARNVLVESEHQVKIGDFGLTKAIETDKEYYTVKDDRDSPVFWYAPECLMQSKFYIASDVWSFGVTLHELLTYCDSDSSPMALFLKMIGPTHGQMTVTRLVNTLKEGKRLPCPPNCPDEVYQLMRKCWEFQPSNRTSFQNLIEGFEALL

IC50 (JAK1) [nM] | IC50 (JAK3) [nM] | IC50 (JAK2) [nM] | Structure (SMILES)
> 1000 | 10 to 100 | > 1000 | COc1ccc(Nc2cc(NCc3cccc(S(C)(=O)=O)c3)c(C(N)=O)cn2)cc1 [Example 301, 6-(4-methoxyphenylamino)-4-(3-(methylsulfonyl)benzylamino)nicotinamide]
> 1000 | 10 to 100 | > 1000 | COc1ccc(Nc2cc(NCc3cccc4c3ccn4C)c(C(N)=O)cn2)cc1 [Example 303, 6-(4-methoxyphenylamino)-4-((1-methyl-1H-indol-4-yl)methylamino)nicotinamide]
100 to 1000 | 1 to 10 | 100 to 1000 | CN(C)C(=O)c1ccc(Nc2cc(NCc3cccc4c3ccn4C)c(C(N)=O)cn2)cc1 [Example 304, 6-(4-(dimethylcarbamoyl)phenylamino)-4-((1-methyl-1H-indol-4-yl)methylamino)nicotinamide]
> 1000 | 10 to 100 | > 1000 | N#Cc1ccc(Nc2cc(NCc3cncc(F)c3)c(C(N)=O)cn2)cc1 [Example 308, 6-(4-cyanophenylamino)-4-((5-fluoropyridin-3-yl)methylamino)nicotinamide]
100 to 1000 | 10 to 100 | 100 to 1000 | Cc1ccc(Nc2cc(NCc3cncc(F)c3)c(C(N)=O)cn2)cc1 [Example 311, 4-((5-fluoropyridin-3-yl)methylamino)-6-(p-tolylamino)nicotinamide]
100 to 1000 | 10 to 100 | 100 to 1000 | COc1ccc(Nc2cc(NCc3cccc(F)n3)c(C(N)=O)cn2)cc1 [Example 315, 4-((6-fluoropyridin-2-yl)methylamino)-6-(4-methoxyphenylamino)nicotinamide]
> 1000 | 100 to 1000 | > 1000 | COc1ccc(Nc2cc(NCc3cccc4ccn(C)c34)c(C(N)=O)cn2)cc1 [Example 317, 6-(4-methoxyphenylamino)-4-((1-methyl-1H-indol-7-yl)methylamino)nicotinamide]
> 1000 | 10 to 100 | 100 to 1000 | CN(C)C(=O)c1ccc(Nc2cc(NCc3cccc4ccn(C)c34)c(C(N)=O)cn2)cc1 [Example 318, 6-(4-(dimethylcarbamoyl)phenylamino)-4-((1-methyl-1H-indol-7-yl)methylamino)nicotinamide]
100 to 1000 | 1 to 10 | 100 to 1000 | CC(=O)N1CC(c2ccc(Nc3cc(NCc4ccccc4)c(C(N)=O)cn3)cc2)C1 [Example 324, 6-(4-(1-acetylazetidin-3-yl)phenylamino)-4-(benzylamino)nicotinamide]
> 1000 | 1 to 10 | 100 to 1000 | NC(=O)c1cnc(Nc2ccc(C3CNC3)cc2)cc1NCc1ccccc1 [Example 325, 6-(4-(azetidin-3-yl)phenylamino)-4-(benzylamino)nicotinamide]
100 to 1000 | 1 to 10 | 100 to 1000 | CCC(=O)N1CC(c2ccc(Nc3cc(NCc4ccccc4)c(C(N)=O)cn3)cc2)C1 [Example 326, 4-(benzylamino)-6-(4-(1-propionylazetidin-3-yl)phenylamino)nicotinamide]
100 to 1000 | 1 to 10 | 100 to 1000 | CN(C)C(=O)N1CC(c2ccc(Nc3cc(NCc4ccccc4)c(C(N)=O)cn3)cc2)C1 [Example 337, 4-(benzylamino)-6-(4-(1-(dimethylcarbamoyl)azetidin-3-yl)phenylamino)nicotinamide]

Second part, the molecule before the results:

Structure (SMILES) | IC50 (JAK1) [nM] | IC50 (JAK3) [nM] | IC50 (JAK2) [nM]
CN(C)C(=O)c1ccc(Nc2cc(NCc3ccncn3)c(C(N)=O)cn2)cc1 [Example 299, 6-(4-(dimethylcarbamoyl)phenylamino)-4-(pyrimidin-4-ylmethylamino)nicotinamide] | > 1000 | > 1000 | > 1000
COc1ccc(Nc2cc(NCc3ncccn3)c(C(N)=O)cn2)cc1 [Example 300, 6-(4-methoxyphenylamino)-4-(pyrimidin-2-ylmethylamino)nicotinamide] | > 1000 | 100 to 1000 | > 1000
CN(C)C(=O)c1ccc(Nc2cc(NCc3cccc(S(C)(=O)=O)c3)c(C(N)=O)cn2)cc1 [Example 302, 6-(4-(dimethylcarbamoyl)phenylamino)-4-(3-(methylsulfonyl)benzylamino)nicotinamide] | > 1000 | 10 to 100 | 100 to 1000
NC(=O)c1cnc(Nc2ccc(C(F)(F)F)cc2)cc1NCc1cncc(F)c1 [Example 305] | > 1000 | 100 to 1000 | > 1000
NC(=O)c1cnc(Nc2cccc(F)c2)cc1NCc1cncc(F)c1 [Example 306, 6-(3-fluorophenylamino)-4-((5-fluoropyridin-3-yl)methylamino)nicotinamide] | 100 to 1000 | 10 to 100 | 100 to 1000
NC(=O)c1cnc(Nc2cccc(Cl)c2)cc1NCc1cncc(F)c1 [Example 307, 6-(3-chlorophenylamino)-4-((5-fluoropyridin-3-yl)methylamino)nicotinamide] | > 1000 | 10 to 100 | 100 to 1000
NC(=O)c1cnc(Nc2ccc(OC(F)F)cc2)cc1NCc1cncc(F)c1 [Example 309, 6-(4-(difluoromethoxy)phenylamino)-4-((5-fluoropyridin-3-yl)methylamino)nicotinamide] | > 1000 | 10 to 100 | 100 to 1000
NC(=O)c1cnc(Nc2ccc(OC(F)(F)F)cc2)cc1NCc1cncc(F)c1 [Example 310] | > 1000 | 100 to 1000 | > 1000
CN(C)C(=O)c1ccc(Nc2cc(NCc3cncc(F)c3)c(C(N)=O)cn2)cc1 [Example 312, 6-(4-(dimethylcarbamoyl)phenylamino)-4-((5-fluoropyridin-3-yl)methylamino)nicotinamide] | 100 to 1000 | 1 to 10 | 100 to 1000
NC(=O)c1cnc(Nc2ccc(C(=O)NCC(F)(F)F)cc2)cc1NCc1cncc(F)c1 [Example 313, 4-((5-fluoropyridin-3-yl)methylamino)-6-(4-(2,2,2-trifluoroethylcarbamoyl)phenylamino)nicotinamide] | 100 to 1000 | 10 to 100 | 100 to 1000
CN(CC(F)(F)F)C(=O)c1ccc(Nc2cc(NCc3cncc(F)c3)c(C(N)=O)cn2)cc1 [Example 314, 4-((5-fluoropyridin-3-yl)methylamino)-6-(4-(methyl(2,2,2-trifluoroethyl)carbamoyl)phenylamino)nicotinamide] | > 1000 | 10 to 100 | 100 to 1000
CN(C)C(=O)c1ccc(Nc2cc(NCc3cccc(F)n3)c(C(N)=O)cn2)cc1 [Example 316, 6-(4-(dimethylcarbamoyl)phenylamino)-4-((6-fluoropyridin-2-yl)methylamino)nicotinamide] | 100 to 1000 | 1 to 10 | 100 to 1000
NC(=O)c1cnc(Nc2cc(F)cc(F)c2)cc1NCc1cccc2[nH]ccc12 [Example 323, 4-((1H-indol-4-yl)methylamino)-6-(3,5-difluorophenylamino)nicotinamide] | > 1000 | 100 to 1000 | > 1000
COC(=O)N1CC(c2ccc(Nc3cc(NCc4ccccc4)c(C(N)=O)cn3)cc2)C1 [Example 327, methyl 3-(4-(4-(benzylamino)-5-carbamoylpyridin-2-ylamino)phenyl)azetidine-1-carboxylate] | > 1000 | 10 to 100 | 100 to 1000
CN(C)C(=O)Cc1ccc(Nc2cc(NCc3ccccc3)c(C(N)=O)cn2)cc1 [Example 328, 4-(benzylamino)-6-(4-(2-(dimethylamino)-2-oxoethyl)phenylamino)nicotinamide] | 100 to 1000 | 1 to 10 | 100 to 1000
NC(=O)c1cnc(Nc2ccc(CC(=O)N3CCCC3)cc2)cc1NCc1ccccc1 [Example 329, 4-(benzylamino)-6-(4-(2-oxo-2-(pyrrolidin-1-yl)ethyl)phenylamino)nicotinamide] | 100 to 1000 | 1 to 10 | 100 to 1000
NC(=O)c1cnc(Nc2ccc(CC(=O)N3CCOCC3)cc2)cc1NCc1ccccc1 [Example 330, 4-(benzylamino)-6-(4-(2-morpholino-2-oxoethyl)phenylamino)nicotinamide] | 100 to 1000 | 1 to 10 | 100 to 1000
CN(C)C(=O)C1CN(c2ccc(Nc3cc(NCc4ccccc4)c(C(N)=O)cn3)cc2)C1 [Example 331, 4-(benzylamino)-6-(4-(3-(dimethylcarbamoyl)azetidin-1-yl)phenylamino)nicotinamide] | 100 to 1000 | 1 to 10 | 100 to 1000
COc1ccc(Nc2cc(NCc3ccccc3)c(C(N)=O)cn2)cc1Cl [Example 332, 4-(benzylamino)-6-(3-chloro-4-methoxyphenylamino)nicotinamide] | > 1000 | 10 to 100 | > 1000
CC(=O)N1CC(c2ccc(Nc3cc(NCc4cncc(F)c4)c(C(N)=O)cn3)cc2)C1 [Example 334, 6-(4-(1-acetylazetidin-3-yl)phenylamino)-4-((5-fluoropyridin-3-yl)methylamino)nicotinamide] | 100 to 1000 | 10 to 100 | 100 to 1000
CS(=O)(=O)N1CC(c2ccc(Nc3cc(NCc4ccccc4)c(C(N)=O)cn3)cc2)C1 [Example 335, 4-(benzylamino)-6-(4-(1-(methylsulfonyl)azetidin-3-yl)phenylamino)nicotinamide] | 100 to 1000 | 10 to 100 | 100 to 1000
COCC(=O)N1CC(c2ccc(Nc3cc(NCc4ccccc4)c(C(N)=O)cn3)cc2)C1 [Example 336, 4-(benzylamino)-6-(4-(1-(2-methoxyacetyl)azetidin-3-yl)phenylamino)nicotinamide] | 100 to 1000 | 1 to 10 | 100 to 1000
